Results: PMC4111878, “Three New Humulane Sesquiterpenes from Cultures of the Fungus Antrodiella albocinnamomea” (Natural Products and Bioprospecting, 2014)

Key:
PTP1Bc = molecular target: T1, PTP1Bc (Homo sapiens, UniProt P18031); assay: Enzyme inhibition assay against protein-tyrosine phosphatase PTP1Bc (pNPP hydrolysis); type: biochemical; settings: recombinant His-tagged enzyme, 20 ng per well, pNPP 2 mM, pH 6.0, room temperature, 15 min preincubation, triplicate; NA = no activity; read-out: inhibitory activity against protein-tyrosine phosphatase PTP1Bc, IC50 (converted)
T1 sequence (P18031 1-298 limits assumed): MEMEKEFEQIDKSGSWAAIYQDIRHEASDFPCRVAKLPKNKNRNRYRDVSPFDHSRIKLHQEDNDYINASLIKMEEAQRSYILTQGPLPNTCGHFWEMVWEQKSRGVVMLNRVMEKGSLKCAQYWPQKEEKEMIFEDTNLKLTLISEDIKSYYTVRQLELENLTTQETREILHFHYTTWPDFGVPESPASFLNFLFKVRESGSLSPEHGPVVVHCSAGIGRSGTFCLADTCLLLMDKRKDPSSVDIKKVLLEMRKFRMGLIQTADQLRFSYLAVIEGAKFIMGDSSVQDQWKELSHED
Method: (§1) The enzymatic assay was carried out at room temperature in 96-well plates. After the assay buffer which contained 100 mM Hepes (pH 6.0), 5 mM DTT 0.015 % Brij-35 and PTPase (20 ng PTP1B, 10 ng MEG2per well) was incubated with tested compounds for 15 min, the reaction was initiated by addition of the substrate p-nitrophenol phosphate (pNPP, Sigma, P4744, St. Louis, USA) at a final concentration of 2 mM. The activity of PTPase-catalyzed hydrolysis of pNPP was determined by measuring the amount of p-nitrophenol and the absorbance at 405 nm was recorded as the amount of p-nitrophenol. The IC50 value was determined by the non-linear curve fitting of the percentage inhibition versus inhibitor concentration plot. […] Louis, USA) was used for the positive control. All the assays were carried out in triplicate and the average results were presented.

MEG2 = molecular target: T2, MEG2 (Homo sapiens, UniProt P43378); assay: Enzyme inhibition assay against protein-tyrosine phosphatase MEG2 (pNPP hydrolysis); type: biochemical; settings: recombinant His-tagged enzyme, 10 ng per well, pNPP 2 mM, pH 6.0, room temperature, 15 min preincubation, triplicate; NA = no activity; read-out: inhibitory activity against protein-tyrosine phosphatase MEG2, IC50 (converted)
T2 construct: 6xHis (N); made in house; host or cells: E. coli
T2 sequence (P43378 1-593): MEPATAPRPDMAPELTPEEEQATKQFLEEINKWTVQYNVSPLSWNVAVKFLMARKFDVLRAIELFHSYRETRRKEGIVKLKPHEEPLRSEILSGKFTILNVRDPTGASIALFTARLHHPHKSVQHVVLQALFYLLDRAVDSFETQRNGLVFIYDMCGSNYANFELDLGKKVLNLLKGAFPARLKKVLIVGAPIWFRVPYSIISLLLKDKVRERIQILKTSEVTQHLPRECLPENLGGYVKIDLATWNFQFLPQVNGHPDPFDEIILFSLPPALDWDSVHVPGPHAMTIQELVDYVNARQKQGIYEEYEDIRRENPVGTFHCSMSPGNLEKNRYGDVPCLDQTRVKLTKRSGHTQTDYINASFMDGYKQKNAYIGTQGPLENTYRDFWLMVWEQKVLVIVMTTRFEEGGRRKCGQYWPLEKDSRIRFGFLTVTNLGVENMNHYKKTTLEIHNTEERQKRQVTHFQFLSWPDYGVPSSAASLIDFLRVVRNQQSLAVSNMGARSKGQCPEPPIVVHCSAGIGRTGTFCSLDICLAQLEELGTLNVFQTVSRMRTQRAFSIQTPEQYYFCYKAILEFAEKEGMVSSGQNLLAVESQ
Method: as §1

| IC50 (PTP1Bc) [µM] | IC50 (MEG2) [µM] | SMILES |
| --- | --- | --- |
| 39.3 | 31.5 | CC1=CC(O)C(C)(O)C(C)CCC2(C)OC2CC1 (stereo not shown) [Compound 1, 6,7-epoxy-10E-humulen-1,2-diol] |
|  | 1.75 | C[C@H]1[C@H](C)CC[C@]2(C(=O)O)CC[C@]3(C)C(=CC[C@@H]4[C@@]5(C)CC[C@H](O)C(C)(C)[C@@H]5CC[C@]43C)[C@H]12 [Ursolic acid, reference compound] |
| 59.8 |  | CC1(C)C=CC(O)C2(C)OC2CCC2(C)OC2C1 (stereo not drawn) [Compound 3, 6,7:10,11-diepoxy-3E-humulen-5β-ol] |
